From US10925283B2, “Microbiocidal phenylamidine derivatives” (SYNGENTA PARTICIPATIONS AG, priority 2016, dated 2021)

How the values were obtained:
Assay type in all cases: in vivo
[1] = tested on: Puccinia recondita f. sp. tritici; assay: Puccinia recondita f. sp. tritici / wheat / leaf disc curative (brown rust); conditions: foliar, wheat leaf segments cv. Kanzler, compound applied 1 day after inoculation, assessed 6-8 days after application, read-out: control of Puccinia recondita f. sp. tritici (percent disease control compared to untreated)
Method: Puccinia recondita f. Sp. Tritici/Wheat/Leaf Disc Curative (Brown Rust) Wheat leaf segments cv. Kanzler are placed on agar in multiwell plates (24-well format). The leaf segments are inoculated with a spore suspension of the fungus. Plates are stored in darkness at 19° C. and 75% rh. The formulated test compound diluted in water is applied 1 day after inoculation. The leaf segments are incubated at 19° C. and 75% rh under a light regime of 12 h light/12 h darkness in a climate cabinet and the activity of a compound is assessed as percent disease control compared to untreated when an appropriate level of disease damage appears in untreated check leaf segments (6-8 days after application).

[2] = tested on: Blumeria graminis f. sp. tritici (Erysiphe graminis f. sp. tritici); assay: Blumeria graminis f. sp. tritici / wheat / leaf disc preventative (powdery mildew on wheat); conditions: foliar, wheat leaf segments cv. Kanzler, inoculated 1 day after application, assessed 6-8 days after application, read-out: control of Blumeria graminis f. sp. tritici (percent disease control compared to untreated)
Method: Blumeria graminis f. sp. tritici (Erysiphe graminis f. sp. tritici)/Wheat/Leaf Disc Preventative (Powdery Mildew on Wheat) Wheat leaf segments cv. Kanzler are placed on agar in a multiwell plate (24-well format) and sprayed with the formulated test compound diluted in water. The leaf disks are inoculated by shaking powdery mildew infected plants above the test plates 1 day after application. The inoculated leaf disks are incubated at 20° C. and 60% rh under a light regime of 24 h darkness followed by 12 h light/12 h darkness in a climate chamber and the activity of a compound is assessed as percent disease control compared to untreated when an appropriate level of disease damage appears on untreated check leaf segments (6-8 days after application).

Phakopsora pachyrhizi = Phakopsora pachyrhizi / soybean / preventative (soybean rust); conditions: foliar, soybean leaf disks, inoculated one day after application, assessed 12-14 days after application, read-out: control of Phakopsora pachyrhizi (percent disease control compared to untreated)
Method: Phakopsora pachyrhizi/Soybean/Preventative (Soybean Rust) Soybean leaf disks are placed on water agar in multiwell plates (24-well format) and sprayed with the formulated test compound diluted in water. One day after application leaf discs are inoculated by spraying a spore suspension on the lower leaf surface. After an incubation period in a climate cabinet of 24-36 hours in darkness at 20° C. and 75% rh leaf disc are kept at 20° C. with 12 h light/day and 75% rh. The activity of a compound is assessed as percent disease control compared to untreated when an appropriate level of disease damage appears in untreated check leaf disks (12-14 days after application).

[3] = tested on: Puccinia recondita f. sp. tritici; assay: Puccinia recondita f. sp. tritici / wheat / leaf disc preventative (brown rust); conditions: foliar, wheat leaf segments cv. Kanzler, inoculated 1 day after application, assessed 7-9 days after application, read-out: control of Puccinia recondita f. sp. tritici (percent disease control compared to untreated)
Method: Puccinia recondita f. Sp. Tritici/Wheat/Leaf Disc Preventative (Brown Rust) Wheat leaf segments cv. Kanzler are placed on agar in multiwell plates (24-well format) and sprayed with the formulated test compound diluted in water. The leaf disks are inoculated with a spore suspension of the fungus 1 day after application. The inoculated leaf segments are incubated at 19° C. and 75% rh under a light regime of 12 h light/12 h darkness in a climate cabinet and the activity of a compound is assessed as percent disease control compared to untreated when an appropriate level of disease damage appears in untreated check leaf segments (7-9 days after application).

Row | SMILES | pest or weed control at 200 ppm [1] | pest or weed control at 200 ppm [2] | pest or weed control at 200 ppm (Phakopsora pachyrhizi) | pest or weed control at 200 ppm [3]
1 | CCOCC(O)(c1cc(C)c(/N=C/N(C)CC)cc1OC)C(F)(F)F (stereo not drawn) [E.002, N′-[4-[1-(ethoxymethyl)-2,2,2-trifluoro-1-hydroxy-ethyl]-5-methoxy-2-methyl-phenyl]-N-ethyl-N-methyl-formamidine] | ≥ 80% | ≥ 80% | ≥ 80% | ≥ 80%
2 | CCN(C)/C=N/c1cc(OC)c(C(O)(CO[C@H]2CC[C@H](C)CC2)C(F)(F)F)cc1C (stereo partly drawn) [E.004, N-ethyl-N′-[5-methoxy-2-methyl-4-[2,2,2-trifluoro-1-hydroxy-1-[(4-methylcyclohexoxy)methyl]ethyl]phenyl]-N-methyl-formamidine] | – | – | ≥ 80% | –
3 | CCN(C)/C=N/c1cc(OC)c(C(O)(COC2CC(C)CC(C)C2)C(F)(F)F)cc1C (stereo not drawn) [E.006, N′-[4-[1-[(3,5-dimethylcyclohexoxy)methyl]-2,2,2-trifluoro-1-hydroxy-ethyl]-5-methoxy-2-methyl-phenyl]-N-ethyl-N-methyl-formamidine] | ≥ 80% | ≥ 80% | ≥ 80% | ≥ 80%
4 | CCN(C)/C=N/c1cc(OC)c(C(O)(COCC2CCC2)C(F)(F)F)cc1C (stereo not drawn) [E.011, N′-[4-[1-(cyclobutylmethoxymethyl)-2,2,2-trifluoro-1-hydroxy-ethyl]-5-methoxy-2-methyl-phenyl]-N-ethyl-N-methyl-formamidine] | ≥ 80% | ≥ 80% | ≥ 80% | ≥ 80%
5 | CCC(CC)OCC(O)(c1cc(C)c(/N=C/N(C)CC)cc1OC)C(F)(F)F (stereo not drawn) [E.024, N-ethyl-N′-[4-[1-(1-ethylpropoxymethyl)-2,2,2-trifluoro-1-hydroxy-ethyl]-5-methoxy-2-methyl-phenyl]-N-methyl-formamidine] | – | – | ≥ 80% | –
6 | CCN(C)/C=N/c1cc(OC)c(C(O)(COCCc2ccc(F)cc2)C(F)(F)F)cc1C (stereo not drawn) [E.026, N-ethyl-N′-[5-methoxy-2-methyl-4-[2,2,2-trifluoro-1-[2-(4-fluorophenyl)ethoxymethyl]-1-hydroxy-ethyl]phenyl]-N-methyl-formamidine] | ≥ 80% | ≥ 80% | – | ≥ 80%
7 | CCN(C)/C=N/c1cc(OC)c(C(O)(COCc2ccccc2C)C(F)(F)F)cc1C (stereo not drawn) [E.029, N-ethyl-N′-[5-methoxy-2-methyl-4-[2,2,2-trifluoro-1-hydroxy-1-(o-tolylmethoxymethyl)ethyl]phenyl]-N-methyl-formamidine] | ≥ 80% | ≥ 80% | – | ≥ 80%
8 | C=CCOCCOCC(O)(c1cc(C)c(/N=C/N(C)CC)cc1OC)C(F)(F)F (stereo not drawn) [E.030, N′-[4-[1-(2-allyloxyethoxymethyl)-2,2,2-trifluoro-1-hydroxy-ethyl]-5-methoxy-2-methyl-phenyl]-N-ethyl-N-methyl-formamidine] | ≥ 80% | ≥ 80% | – | ≥ 80%
9 | CCN(C)/C=N/c1cc(OC)c(C(O)(COCC2CC2(F)F)C(F)(F)F)cc1C (stereo not drawn) [E.031, N′-[4-[1-[(2,2-difluorocyclopropyl)methoxymethyl]-2,2,2-trifluoro-1-hydroxy-ethyl]-5-methoxy-2-methyl-phenyl]-N-ethyl-N-methyl-formamidine] | ≥ 80% | ≥ 80% | – | ≥ 80%
10 | CCN(C)/C=N/c1cc(OC)c(C(O)(COC2CCCC2)C(F)(F)F)cc1C (stereo not drawn) [E.032, N′-[4-[1-(cyclopentoxymethyl)-2,2,2-trifluoro-1-hydroxy-ethyl]-5-methoxy-2-methyl-phenyl]-N-ethyl-N-methyl-formamidine] | – | – | ≥ 80% | –
11 | CCC1CCC(OCC(O)(c2cc(C)c(/N=C/N(C)CC)cc2OC)C(F)(F)F)CC1 (stereo not drawn) [E.033, N-ethyl-N′-[4-[1-[(4-ethylcyclohexoxy)methyl]-2,2,2-trifluoro-1-hydroxy-ethyl]-5-methoxy-2-methyl-phenyl]-N-methyl-formamidine] | ≥ 80% | ≥ 80% | – | ≥ 80%
12 | CCN(C)/C=N/c1cc(OC)c(C(O)(COCC2(CC)COC2)C(F)(F)F)cc1C (stereo not drawn) [E.034, N-ethyl-N′-[4-[1-[(3-ethyloxetan-3-yl)methoxymethyl]-2,2,2-trifluoro-1-hydroxy-ethyl]-5-methoxy-2-methyl-phenyl]-N-methyl-formamidine] | ≥ 80% | ≥ 80% | – | ≥ 80%
13 | CCN(C)/C=N/c1cc(OC)c(C(O)(COCc2cccc(C)c2)C(F)(F)F)cc1C (stereo not drawn) [E.035, N-ethyl-N′-[5-methoxy-2-methyl-4-[2,2,2-trifluoro-1-hydroxy-1-(m-tolylmethoxymethyl)ethyl]phenyl]-N-methyl-formamidine] | ≥ 80% | ≥ 80% | – | ≥ 80%
14 | CCN(C)/C=N/c1cc(OC)c(C(O)(COC2CCC(C)(C)CC2)C(F)(F)F)cc1C (stereo not drawn) [E.038, N′-[4-[1-[(4,4-dimethylcyclohexoxy)methyl]-2,2,2-trifluoro-1-hydroxy-ethyl]-5-methoxy-2-methyl-phenyl]-N-ethyl-N-methyl-formamidine] | ≥ 80% | ≥ 80% | – | ≥ 80%
15 | CCN(C)/C=N/c1cc(OC)c(C(O)(COCc2ccccc2)C(F)(F)F)cc1C (stereo not drawn) [E.043, N′-[4-[1-(benzyloxymethyl)-2,2,2-trifluoro-1-hydroxy-ethyl]-5-methoxy-2-methyl-phenyl]-N-ethyl-N-methyl-formamidine] | – | ≥ 80% | ≥ 80% | ≥ 80%
16 | CCN(C)/C=N/c1cc(OC)c(C(O)(COCc2ccc(F)cc2)C(F)(F)F)cc1C (stereo not drawn) [E.044, N-ethyl-N′-[5-methoxy-2-methyl-4-[2,2,2-trifluoro-1-[(4-fluorophenyl)methoxymethyl]-1-hydroxy-ethyl]phenyl]-N-methyl-formamidine] | – | ≥ 80% | ≥ 80% | ≥ 80%
17 | CCO/N=C(/CC(O)(c1cc(C)c(/N=C/N(C)CC)cc1OC)C(F)(F)F)c1ccccc1 (stereo not drawn) [E.058, N′-[4-[(3Z)-3-ethoxyimino-1-hydroxy-3-phenyl-1-(trifluoromethyl)propyl]-5-methoxy-2-methyl-phenyl]-N-ethyl-N-methyl-formamidine] | ≥ 80% | ≥ 80% | – | ≥ 80%
18 | CCN(C)/C=N/c1cc(OC)c(C(O)(CS(=O)(=O)C(C)C)C(F)(F)F)cc1C (stereo not drawn) [E.063, N-ethyl-N′-[5-methoxy-2-methyl-4-[2,2,2-trifluoro-1-hydroxy-1-(isopropylsulfonylmethyl)ethyl]phenyl]-N-methyl-formamidine] | ≥ 80% | ≥ 80% | – | ≥ 80%
19 | CCN(C)/C=N/c1cc(OC)c(C(O)(CS(=O)(=O)CC)C(F)(F)F)cc1C (stereo not drawn) [E.067, N-ethyl-N′-[4-[1-(ethylsulfonylmethyl)-2,2,2-trifluoro-1-hydroxy-ethyl]-5-methoxy-2-methyl-phenyl]-N-methyl-formamidine] | ≥ 80% | ≥ 80% | – | ≥ 80%
20 | CCN(C)/C=N/c1cc(OC)c(C(O)(CSc2ccccc2)C(F)(F)F)cc1C (stereo not drawn) [E.072, N-ethyl-N′-[5-methoxy-2-methyl-4-[2,2,2-trifluoro-1-hydroxy-1-(phenylsulfanylmethyl)ethyl]phenyl]-N-methyl-formamidine] | – | ≥ 80% | ≥ 80% | ≥ 80%
